Measurements reported in the supplement of paper PMC10307832.

Compound: COc1cc(Nc2ncc3c(n2)-c2ccc(Cl)cc2C(c2c(F)cccc2OC)=NC3)ccc1C(=O)O [Alisertib]
Assay: relative viability (nuclei count vs DMSO), 5 days (fraction); higher = more cells survive
In short: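 Lung cancer cell lines were seeded into 1536-well plates, kept overnight at 37 °C and pinned with five library-drug doses (not always all listed) spaced by √10. After 5 days, nuclei were Hoechst-stained, imaged at 4× and counted with MetaXpress. Viability is treated-well nuclei over vehicle-well nuclei, taken as a median across plates. Plates needed control CV below 25% and at least one doubling.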

| Cell Line | relative viability (0.005 µM) | relative viability (0.01581 µM) | relative viability (0.05 µM) | relative viability (0.1581 µM) | relative viability (0.5 µM) |
| --- | --- | --- | --- | --- | --- |
| COR-L 105 | 0.863 | 0.952 | 0.765 | 0.305 | 0.303 |
| LK-2 | 0.962 | 0.853 | 0.497 | 0.297 | 0.202 |
| NCI-H838 | 0.833 | 0.831 | 0.617 | 0.313 | 0.191 |
| SK-LU-1 | 0.856 | 0.802 | 0.447 | 0.333 | 0.232 |
| NCI-H2023 | 0.838 | 0.727 | 0.566 | 0.227 | 0.109 |
| NCI-H322M | 0.874 | 0.894 | 0.812 | 0.501 | 0.493 |
| NCI-H1666 | 0.904 | 0.814 | 0.689 | 0.534 | 0.438 |
| NCI-H1648 | 0.833 | 0.755 | 0.606 | 0.255 | 0.242 |
| NCI-H2087 | 0.941 | 0.807 | 0.312 | 0.176 | 0.201 |
| LU99A | 0.961 | 0.853 | 0.579 | 0.288 | 0.193 |
| HCC-366 | 1 | 0.813 | 0.0889 | 0.0461 | 0.054 |
| EKVX | 0.907 | 0.85 | 0.43 | 0.231 | 0.186 |
| NCI-H522 | 0.817 | 1.02 | 0.696 | 0.515 | 0.452 |
| NCI-H1755 | 0.939 | 0.963 | 0.805 | 0.386 | 0.36 |
| NCI-H650 | 0.724 | 0.856 | 0.394 | 0.258 | 0.209 |
| LC-2-ad | 0.736 | 0.594 | 0.347 | 0.245 | 0.225 |
| NCI-H1793 | 0.745 | 0.473 | 0.411 | 0.264 | 0.233 |
| HCC-827 | 0.947 | 1.01 | 0.812 | 0.363 | 0.324 |
| HCC-78 | 0.858 | 0.642 | 0.303 | 0.284 | 0.328 |

| Cell Line | relative viability (0.005 µM) | relative viability (0.01581 µM) | relative viability (0.05 µM) | relative viability (0.1581 µM) | relative viability (0.5 µM) |
| --- | --- | --- | --- | --- | --- |
| NCI-H2085 | 0.936 | 0.955 | 0.572 | 0.327 | 0.385 |
| PC-3 [JPC-3] | 0.974 | 0.976 | 0.932 | 0.48 | 0.398 |
| NCI-H2342 | 0.812 | 0.978 | 0.776 | 0.551 | 0.42 |
| A-427 | 0.798 | 0.681 | 0.333 | 0.231 | 0.19 |
| H3255 | 0.94 | 0.859 | 0.586 | 0.251 | 0.205 |
| HCC-44 | 0.933 | 0.928 | 0.816 | 0.275 | 0.212 |
| NCI-H1734 | 0.802 | 0.731 | 0.417 | 0.299 | 0.193 |
| NCI-H2228 | 0.778 | 0.85 | 0.531 | 0.158 | 0.189 |
| ABC-1 | 0.794 | 0.845 | 0.787 | 0.286 | 0.293 |
| COR-L23 | 1.02 | 0.846 | 0.484 | 0.203 | 0.123 |
| NCI-H727 | 0.817 | 0.929 | 0.542 | 0.384 | 0.401 |
| NCI-H1993 | 0.906 | 0.92 | 0.621 | 0.468 | 0.516 |
| NCI-H1437 | 0.896 | 0.836 | 0.605 | 0.344 | 0.203 |
| NCI-H596 | 0.882 | 1 | 1.07 | 0.816 | 0.4 |
| 201T | 0.985 | 0.964 | 0.966 | 0.466 | 0.386 |
| NCI-H358 | 0.791 | 0.797 | 0.2 | 0.147 | 0.14 |
| ChaGo-K-1 | 0.84 | 0.855 | 0.348 | 0.245 | 0.223 |
| NCI-H1650 | 0.846 | 0.736 | 0.289 | 0.192 | 0.224 |
| LOU-NH91 | 0.938 | 0.958 | 0.734 | 0.478 | 0.398 |
